Reference: patent publication US12655379B2, “Device for evaluation of chemical substance and method for evaluation of chemical substance” (SHINKO CHEMICAL CO., LTD., priority 2017, dated 2026)

How the values were obtained:
Caco-2 cells = test: Perfusion test of first pass effect, small intestine compartment (Caco-2 single layer film in insert); details: 240 μL of 62.5 μg/mL substrate solution in insert, HBSS perfusion, sampled every 30 minutes for 180 minutes, LC-MS-MS, FIG. 19
Description: (§1) In the present example, small intestine epithelial cells and liver cells were disseminated in separate compartments, and a first pass effect of a chemical substance was evaluated by using a device in which the respective compartments were connected via a flow path system. In the device described with reference to FIG. 1, Caco-2 cells were disseminated as model cells of the small intestine epithelial cells, and HepG2-CYP3A4 cells obtained by a genetic manipulation to excessively develop CYP3A4 in HepG2 cells were disseminated as model cells of the liver cells. Thus, the first pass effects (absorption and metabolism) of the chemical substance on two types of cells (the small intestine epithelial cells and the liver cells) were simultaneously evaluated.
(§2) • a) Caco-2 Cell • i) 0.4 mL of cell suspension was added to an inner side (an apical side) of a porous membrane filter at a density of 0.5 to 5×10^5 cells/cm^2 (e.g., 0.6×10^5 cells/cm^2). • ii) 0.8 mL of medium was added to an outer side (a basal side) of the porous membrane filter. • iii) The cells were cultured in a carbon dioxide gas incubator (5% of CO2 at 37° C. under humidification conditions) for about 3 weeks. An apical-side medium and a basal-side medium were appropriately changed.
(§3) Prior to use in a test, an electric resistance of a single layer film was measured by using an electric resistance measuring device.

HepG2-CYP3A4 cells = test: Perfusion test of first pass effect, liver compartment (HepG2-CYP3A4 cells downstream of Caco-2 insert); details: 240 μL of 62.5 μg/mL substrate solution in insert, HBSS perfusion, sampled every 30 minutes for 180 minutes, LC-MS-MS, FIG. 20
Description: as §1, §2, §3

Cc1ncc2n1-c1ccc(Cl)cc1C(c1ccccc1F)=NC2 [midazolam, Midazolam]
permeation amount of midazolam permeated through the Caco-2 single layer film (Caco-2 cells): successive increase
permeation amount of midazolam (HepG2-CYP3A4 cells): successive increase
